# Patent US8952017B2 (Emisphere Technologies, Inc., priority 2004, dated 2015)
# Columns and labels:
# [1] = Solid oral delivery of acyclovir in rats (plasma acyclovir by LC-MS-MS); format: in vivo, Male Sprague Dawley rats; details: oral tablet, acyclovir 25 mg/kg, no delivery agent
# Excerpt: An oral dosing tube was used.
# Results from the animals in each group were averaged for each time point.
# [2] = orally administered; cited from earlier work
compound,measurement,setting,value
"Nc1nc2c(ncn2COCCO)c(=O)[nH]1 [Acyclovir, 9-(2-hydroxyethoxymethyl)guanine]",Mean plasma peak of Acyclovir (ng/ml) ± SD,[1],95.11 ± 73.75 ng/mL
same,bioavailability,[2],15-30%
